We go through four cell lines from the supplement of paper PMC10307832.

What all share (experiment): relative viability (nuclei count vs DMSO), 5 days (fraction); higher = more cells survive
Compound in test [1]: C1=CC=C2C(=C1)C=CC(=C2SSC3=C(C=CC4=CC=CC=C43)O)O [IPA-3] + CC(=O)c1c(C)c2cnc(Nc3ccc(N4CCNCC4)cn3)nc2n(C2CCCC2)c1=O [Palbociclib] (partner 0.5 µM)
In outline: (§1)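 Relative viability divides the nuclei count in treated wells by that in vehicle wells. Lung cancer cell lines were seeded in 1536-well plates, dosed by pin tool the next day, and fixed and stained after 5 days in one step with final 0.05% Triton X-100, 1% formaldehyde and 1 ug/ml Hoechst. Dosing was a single drug or a fixed anchor-drug dose plus five library-drug doses (not always all listed) in √10 steps, and values are medians of duplicate plates imaged at 4×.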

Compound in test [2]: C1=CC=C2C(=C1)C=CC(=C2SSC3=C(C=CC4=CC=CC=C43)O)O [IPA-3] + CC(C)C[C@H](NC(=O)[C@H](Cc1ccccc1)NC(=O)c1cnccn1)B(O)O [Bortezomib] (partner 0.002 µM)
In outline:
as §1

Compound in test [3]: Cc1ccc(-n2nc(C(C)(C)C)cc2NC(=O)Nc2ccc(OCCN3CCOCC3)c3ccccc23)cc1 [Doramapimod] + C[C@]1(O)C[C@@H](c2nc(-c3ccc4ccc(-c5ccccc5)nc4c3)c3c(N)nccn32)C1 [Linsitinib] (partner 1 µM)
The essentials: as §1

Compound in test [4]: Cn1c(Nc2ccc(C(F)(F)F)cc2)nc2cc(Oc3ccnc(-c4ncc(C(F)(F)F)[nH]4)c3)ccc21 [RAF265] + COc1cccc2cc(-c3nc([C@H]4CC[C@H](C(=O)O)CC4)n4ncnc(N)c34)[nH]c12 [OSI-027] (partner 0.5 µM)
In outline: as §1

As for PC-14, the relative viability stood at 0.648 in test [1] (first compound 0.2 µM); 0.324 in test [1] (first compound 0.6325 µM); 0.512 in test [1] (first compound 2 µM); 0.446 in test [1] (first compound 6.325 µM); 0.352 in test [1] (first compound 20 µM); 1.09 in test [2] (first compound 0.2 µM). The relative viability was 0.79 in test [2] (first compound 0.6325 µM); 0.914 in test [2] (first compound 2 µM); 0.805 in test [2] (first compound 6.325 µM); 1.04 in test [2] (first compound 20 µM); 1.01 in test [3] (first compound 0.02 µM); 1.03 in test [3] (first compound 0.06325 µM). The relative viability was found to be 0.981 in test [3] (first compound 0.2 µM); 0.931 in test [3] (first compound 0.6325 µM); 0.9 in test [3] (first compound 2 µM); 0.813 in test [4] (first compound 0.01 µM); 0.734 in test [4] (first compound 0.03162 µM); 0.787 in test [4] (first compound 0.1 µM). Moreover, in test [4] (first compound 1 µM), the relative viability was 0.48.
As to RERF-LC-KJ, the relative viability in test [1] (first compound 0.2 µM) was 1.19; in test [1] (first compound 0.6325 µM), 1.04; in test [1] (first compound 2 µM), 1.08; in test [1] (first compound 6.325 µM) it was 1.16; in test [1] (first compound 20 µM), 0.826; in test [2] (first compound 0.2 µM), 1.33. In addition, the relative viability worked out at 1.36 in test [2] (first compound 0.6325 µM); 1.12 in test [2] (first compound 2 µM); 1.25 in test [2] (first compound 6.325 µM); 1.18 in test [2] (first compound 20 µM); 0.871 in test [3] (first compound 0.02 µM); 0.912 in test [3] (first compound 0.06325 µM). Also, the relative viability was 0.899 in test [3] (first compound 0.2 µM); 0.952 in test [3] (first compound 0.6325 µM); 0.864 in test [3] (first compound 2 µM); 0.548 in test [4] (first compound 0.01 µM); 0.52 in test [4] (first compound 0.03162 µM); 0.423 in test [4] (first compound 0.1 µM). Further, the relative viability came out at 0.349 in test [4] (first compound 0.3162 µM) and 0.381 in test [4] (first compound 1 µM).
Turning to SK-LU-1, the relative viability in test [1] (first compound 0.2 µM) is 0.446; in test [1] (first compound 0.6325 µM), 0.341; in test [1] (first compound 2 µM), 0.374; in test [1] (first compound 6.325 µM), 0.401; in test [1] (first compound 20 µM), 0.411; in test [2] (first compound 0.2 µM), 1.14. For the same cell line, the relative viability in test [2] (first compound 0.6325 µM) was determined as 1.21; in test [2] (first compound 2 µM), 1.09; in test [2] (first compound 6.325 µM), 1.19; in test [2] (first compound 20 µM), 1.62; in test [3] (first compound 0.02 µM) it was 1.07; in test [3] (first compound 0.06325 µM), 1.02. For the same cell line, the relative viability came to 1.2 in test [3] (first compound 0.2 µM); 1.16 in test [3] (first compound 0.6325 µM); 0.941 in test [3] (first compound 2 µM); 0.349 in test [4] (first compound 0.01 µM); 0.254 in test [4] (first compound 0.03162 µM); 0.224 in test [4] (first compound 0.1 µM). In addition, the relative viability came out at 0.232 in test [4] (first compound 0.3162 µM) and 0.193 in test [4] (first compound 1 µM).
For SW 1573, the relative viability in test [1] (first compound 0.2 µM) came to 0.492; in test [1] (first compound 0.6325 µM), 0.332; in test [1] (first compound 2 µM), 0.412; in test [1] (first compound 6.325 µM) it was 0.363; in test [1] (first compound 20 µM), 0.0729; in test [2] (first compound 0.2 µM) it was 1.18. For the same cell line, the relative viability in test [2] (first compound 0.6325 µM) turned out to be 1.04; in test [2] (first compound 2 µM), 1.36; in test [2] (first compound 6.325 µM), 1.13; in test [2] (first compound 20 µM) it was 1.25; in test [3] (first compound 0.02 µM) it was 0.722; in test [3] (first compound 0.06325 µM) it was 0.74. Further, the relative viability turned out to be 0.8 in test [3] (first compound 0.2 µM); 0.739 in test [3] (first compound 0.6325 µM); 0.736 in test [3] (first compound 2 µM); 0.697 in test [4] (first compound 0.01 µM); 0.521 in test [4] (first compound 0.03162 µM); 0.418 in test [4] (first compound 0.1 µM). Moreover, the figures for the relative viability in test [4] (first compound 0.3162 µM) and in test [4] (first compound 1 µM) were 0.347 and 0.249, respectively.
